How the values were obtained:
cortical neurones = assay: Alamar Blue cellular viability assay in primary cortical cultures; assay type: cell-based, mouse; settings: 72 hours in culture
Description: (§1) In order to carry out the experiments of the present invention, either an in vitro cortical neuronal model with simultaneous overexpression of tau and β-amyloid, obtained from a model of Alzheimer's disease in triple-transgenic (3×Tg-AD or 3×Tg) mice, obtainable via the detailed procedure in the international patent application WO2003/053136 and provided by the title holders of this application, or an in vitro cortical neuronal model obtained from non-transgenic (No-Tg) mice.
Primary cortical cultures in the embodiment of the invention were obtained from 3×Tg-AD mouse embryos of 15-17 days gestation and the wild cultures were obtained from non 3×Tg control mouse embryos of the same strain. The effect of the compounds used in this invention on cellular viability was estimated by a fluorescence assay using the Alamar Blue viability indicator. To carry out the assay, primary cortical cultures seeded on 96-well plates were used. The neuronal cells were incubated in the culture medium with the spirolide of the present invention at different concentrations dissolved in dimethyl sulfoxide and the effect on neuronal viability was determined at different treatment times in vitro. The maximum concentration of 13-desmethyl spirolide evaluated was 100 nM and the concentration of Alamar blue was 10%. The volume of the reaction used was 200 μl. Fluorescence was measured at wavelengths of 530 nm (excitation) and 590 nm (emission).

total tau = assay: Western blot of total basal tau (Tau46 antibody) in control non-transgenic cortical neurones; assay type: cell-based, mouse; settings: 100 nM
Method: The effect of spirolide on basal phosphorylation of tau was determined by Western blot techniques. An in vitro cortical neuronal model obtained from non-transgenic mice was used. Neuronal culture and sample processing was carried out in the same way as described in the previous example. The data obtained were corrected for the β-actin content of the samples.

β-amyloid = assay: Western blot of intracellular β-amyloid (6E10 antibody) in 3xTg-AD cortical neuronal cultures; assay type: cell-based, mouse
Description: as §1
(§2) For the determination of the effect of the spirolide compound of the present invention on the expression of tau and beta amyloid, the Western blot techniques were used. […] For Western blot studies, protein expression was evaluated using 6E10 anti-β-amyloid primary antibodies at a dilution of 1:500, AT8 anti-Tau (tau phosphorylated on Ser202, dilution 1:1000) and AT100 anti-tau (tau phosphorylated on Thr 212 and Ser214, dilution 1:1000).
(§3) For Western blot assays, neuronal cultures treated with the spirolide of the present invention were washed with cold phosphate buffer and lysed in 50 mM Tris-HCl buffer (pH 7.4) containing 150 mM NaCl, 1 mM EDTA, 1% Triton X-100, 2 mM DTT, 2.5 mM PMSF, 40 mg/ml aprotinin, 4 mg/ml leupeptin, 5 mM NaF, 1 mM Na3VO4, 1 mg/ml pepstatin A and 1 mg/ml benzamidine. Total protein concentration was determined by Bradford's method using bovine albumin as standard. […]

[1] = administered intraperitoneally, rat and mouse; cited from earlier work
[2] = oral; cited from earlier work
[3] = tested on: tau phosphorylated on Thr212 and Ser214; assay: Western blot of phosphorylated tau (AT100 antibody) in 3xTg-AD cortical neuronal cultures; assay type: cell-based, mouse; settings: 3xTg cultures, FIG. 3B, p<0.005, n=3
Description: as §1, §2, §3

[4] = tested on: tau phosphorylated on Ser202; assay: Western blot of phosphorylated tau (AT8 antibody) in 3xTg-AD cortical neuronal cultures; assay type: cell-based, mouse; settings: for levels of tau phosphorylated on Serine 202: day 3 to day 10 in vitro, untreated 3xTg 129.1
Description: as §1
The administration of 50 nM spirolide is equivalent to approximately 37 μg spirolide per kg of body weight. Intraperitoneal administration of an amount higher than 37 μg per kg body weight to a mouse reduced the levels of these proteins but produced toxic effects in the animal (Santokh et al., 2003. NeuroToxicology, 24: 593-604), however, the oral toxicity of spirolides is 1 mg per kg body weight.
For the determination of the effect of the spirolide compound of the present invention on the expression of tau and beta amyloid, the Western blot techniques were used. The primary neuronal cultures were incubated with the spirolide compound of the present invention added to the culture medium for a specific time. For the concentration of 50 nM, the treatment times were between 7 and 10 days in vitro and for other concentrations (0.1 to 25 nM) between 3 and 10 days in vitro. The cells were then processed following the usual protocols for Western blot. For Western blot studies, protein expression was evaluated using 6E10 anti-β-amyloid primary antibodies at a dilution of 1:500, AT8 anti-Tau (tau phosphorylated on Ser202, dilution 1:1000) and AT100 anti-tau (tau phosphorylated on Thr 212 and Ser214, dilution 1:1000).
For Western blot assays, neuronal cultures treated with the spirolide of the present invention were washed with cold phosphate buffer and lysed in 50 mM Tris-HCl buffer (pH 7.4) containing 150 mM NaCl, 1 mM EDTA, 1% Triton X-100, 2 mM DTT, 2.5 mM PMSF, 40 mg/ml aprotinin, 4 mg/ml leupeptin, 5 mM NaF, 1 mM Na3VO4, 1 mg/ml pepstatin A and 1 mg/ml benzamidine. Total protein concentration was determined by Bradford's method using bovine albumin as standard. Aliquots of cellular lysates containing 20 μg total protein were loaded in loading buffer (50 mM Tris-HCl, 100 mM dithiothreitol, 2% SDS, 20% glycerol, 0.05% bromophenol blue, pH 6.8), the proteins were separated by electrophoresis and transferred to PVDF membranes. The membranes were incubated with the primary antibodies, washed and then incubated with a secondary antibody bound to HRP. Immunoreactivity was detected by chemiluminescence. The same membranes were reincubated with an anti-β-actin primary antibody to carry out data correction for the sample protein content.

For 13-desmethyl spirolide, the “Viability of cortical neurones” value (cortical neurones; 2.5 nM) was 104.3 ± 1.2 % control, the “Viability of cortical neurones” value (cortical neurones; 5 nM) was 104 ± 1.3 % control and the “Viability of cortical neurones” value (cortical neurones; 10 nM) was 104.3 ± 1.4 % control. For the same substance, the “Viability of cortical neurones” value (cortical neurones; 25 nM) was 104.3 ± 0.7 % control, the “Viability of cortical neurones” value (cortical neurones; 50 nM) was 103.4 ± 0.5 % control and the “Viability of cortical neurones” value (cortical neurones; 100 nM) was 102.1 ± 1.5 % control. For the same substance, the “total basal tau levels in control neurones” value (total tau) was 139.9 ± 27.3 % control, the “total basal tau levels in control neurones” value (total tau; listed as spirolide) was “did not affect” and the β-amyloid protein (β-amyloid; 0.5 nM) was “reducing β-amyloid protein”. For the same substance, the “overexpression of β-amyloid (Western blot quantification, 6E10)” value (β-amyloid; 3xTg cultures, FIG. 1B, p<0.005 vs untreated transgenic cultures, n=3) was “significant reduction”, the “concentration causing toxic effects” value [1] was 37-40 μg/kg body weight and the “toxicity when administered orally” value [2] was “not toxic”. For the same substance, the “tau phosphorylation (AT100, Thr212 and Ser214; Western blot quantification)” value [3] was “significant reduction”, the “hyperphosphorylation of the tau protein” value ([4]; 0.017 μg per kg body weight (approx. 0.023 nM)) was “continued to be reduced” and the “levels of tau phosphorylated on Serine 202” value (“levels of tau phosphorylated” for short) ([4]; 3xTg cultures, 0.1 nM) was 129.8 ± 1.7 % control. For the same substance, the “levels of tau phosphorylated” value ([4]; 3xTg cultures, 0.5 nM) was 61.7 ± 12.4 % control, the “levels of tau phosphorylated” value ([4]; 3xTg cultures, 10 nM) was 70.3 ± 4.7 % control and the “levels of tau phosphorylated” value ([4]; 3xTg cultures, 25 nM) was 89.1 ± 2.2 % control. For the same substance, the “tau phosphorylation (AT8, Ser202; Western blot quantification)” value ([4]; 3xTg cultures, FIG. 2B, p<0.05, n=3) was “significant reduction”.

Source: patent US20120258956A1, “USE OF A SPIROLIDE, ANALOGUES AND DERIVATIVES FOR TREATING AND/OR PREVENTING PATHOLOGICAL CONDITIONS LINKED TO THE TAU AND BETA-AMYLOID PROTEINS” (priority 2009, published 2012)
